Article PMC10179475, “Flavone and Hydroxyflavones Are Ligands That Bind the Orphan Nuclear Receptor 4A1 (NR4A1)” (International Journal of Molecular Sciences, 2023)
“Also recorded” adds a separate entry of the source. Read-outs that look alike come from different tables or passages of the source.

Tests used:
GAL4-NR4A1 [1] = target: T1, GAL4-NR4A1 (Homo sapiens, UniProt P22736); assay: NR4A1-dependent transactivation, GAL4-NR4A1/UAS-luc, Rh30 cells; format: cell-based; design: expressed in transfected cells; host or cells: Rh30 rhabdomyosarcoma cells; details: for effect on NR4A1-dependent transactivation: 50 µM
[2] = target: NR4A1 protein (ligand-binding domain: LBD) (Homo sapiens, UniProt P22736); assay: Isothermal titration calorimetry (ITC) binding assay;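 also: ligand titrated into 20 µmol/L NR4A1 LBD in sodium phosphate buffer pH 7.4 with glycerol and ethanol, thirty injections, heat flow corrected for ligand-into-buffer dilution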
GAL4-NR4A1 [3] = target: T1, GAL4-NR4A1; assay: NR4A1-dependent transactivation, GAL4-NR4A1/UAS-luc, Panc1 cells; format: cell-based; design: expressed in transfected cells; host or cells: Panc1 pancreatic cancer cells; Rh30 rhabdomyosarcoma cells; details: for effect on luciferase activity: 25 or 50 µM, p < 0.05
Protocol: Figure 3 Hydroxyflavonoid activation of NR4A1-dependent transactivation. Panc1 cells were cotransfected with GAL4-NR4A1 and UAS-luciferase constructs, cells were treated with 25 and 50 µM hydroxyflavonoids and luciferase activity (normalized to β-galactosidase activity) was determined. Results were determined in triplicate for each concentration and are plotted as mean values ±SE. Significant induction or inhibition (p < 0.05) of luciferase activity is illustrated (*).
The UAS-luciferase reporter gene containing 5 GAL4 binding sites and the GAL4-NR4A1 chimera containing the GAL4 DNA-binding domain which linked to the ligand-binding domain (LBD) of NR4A1 were used in transactivation assays in Panc1 pancreatic cancer cells. Panc-1 cells were plated in a 24-well plate (3 × 10^4 cells/well) and grown for 24 h. Cells were then co-transfected with each construct (250 ng) and the β-gal expression construct (25 ng) using GeneJuice (Novagen, Madison, WI, USA) in accordance with the manufacture’s protocol. The medium was removed after 18 h and replaced with a 2.5% charcoal-stripped FBS-supplemented medium containing either DMSO or flavonoids (25 and 50 µM) in DMSO. After 24 h, cells were then lysed, and cell extracts were processed to measure luciferase activity. Luciferase activity was normalized by dividing the β-gal expression and each treatment was determined in three independent experiments. Data were expressed as mean ± SE and significant (p < 0.05) effects were noted.

[4] = target: ligand-binding domain (LBD) of NR4A1 (Homo sapiens, UniProt P22736); assay: Direct-binding fluorescence assay (quenching of NR4A1 tryptophan fluorescence)
Protocol: (§1) Tryptophan fluorescence spectra were obtained essentially as described. Briefly, the ligand-binding domain of NR4A1 at the final concentration of 0.5 µmol/L in 1.0 mL of phosphate-buffered saline (PBS, pH 7.4) was used for fluorescence measurements. The protein was incubated for 3 min at 25 °C in a temperature-controlled (Quantum Northwest TC125) fluorescence spectrophotometer (Varian Cary Eclipse). The fluorescence spectra were obtained using an excitation wavelength of 285 nm (excitation slit width = 5 nm) and an emission wavelength range of 300–420 nm (emission slit width = 5 nm). Aliquots (0.1 µL/aliquot) of the ligand (10 mmol ligand/L ethanol) were then added to the cuvette containing NR4A1 to reach a final ligand concentration of up to 60 µmol/L. After each aliquot of the ligand, the NR4A1/ligand solution was incubated at 25 °C for 3 min and the loss of tryptophan fluorescence was measured as described above. The addition of DMSO only (up to a final volume of 3.0 µL) had no effect on NR4A1 tryptophan fluorescence. […] Fluorescence intensity at each ligand concentration was used to correct the NR4A1 tryptophan fluorescence intensity as described.

rhabdomyosarcoma tumor = tested on: rhabdomyosarcoma tumor; design: method as in PMID 34906197; details: athymic mouse xenograft model; cited from earlier work
GAL4-NR4A1 [5] = target: T1, GAL4-NR4A1; design: expressed in transfected cells; host or cells: Rh30 rhabdomyosarcoma cells; method as in PMID 34906197; details: Rh30 rhabdomyosarcoma cells, same constructs, cited from earlier work
[6] = Solubility in the fluorescence assay; format: physicochemical; details: aqueous
Protocol: as §1

ERα = tested on: ERα; design: method as in PMID 18095219; details: cited from earlier work
[7] = fluorescence (Trp quenching) assay, Table 1 head prints no unit, µM from text and Figure 5, read-out: KD, direct binding assay
[8] = fluorescent binding assay, read-out: KD (Figure 1)

T1 sequence (P22736 360-595 limits assumed): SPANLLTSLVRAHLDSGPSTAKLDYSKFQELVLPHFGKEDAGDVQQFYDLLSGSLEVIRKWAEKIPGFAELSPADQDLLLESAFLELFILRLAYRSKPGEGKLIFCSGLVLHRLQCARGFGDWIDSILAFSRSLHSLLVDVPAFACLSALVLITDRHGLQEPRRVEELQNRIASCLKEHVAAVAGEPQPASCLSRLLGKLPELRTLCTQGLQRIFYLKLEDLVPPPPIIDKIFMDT
NR4A1 protein (ligand-binding domain: LBD), sequence (P22736 360-595 limits assumed): as above
ligand-binding domain (LBD) of NR4A1, sequence (P22736 360-595 limits assumed): as above

Row | effect on NR4A1-dependent transactivation (GAL4-NR4A1 [1]) | ITC assay ΔG ([2]; 25 °C) | Kd ([2]; 25 °C, read-out: ITC assay Kd1) | Kd [4, 7] | SMILES | effect on luciferase activity (GAL4-NR4A1 [3]) | also measured
1 | decreased transactivation | -42.9 kJ/mol | 0.032 µM | 12.5 µM | O=c1cc(-c2ccccc2)oc2ccc(O)cc12 [6-Hydroxyflavone] | significantly induced luciferase activity | 
2 |  | -51.3 kJ/mol | 0.001 µM | 11.3 µM | O=c1cc(-c2ccccc2)oc2cc(O)cc(O)c12 [5,7 Dihydroxyflavone] |  | 
3 |  | -27 kJ/mol | 18 µM | 1.4 µM | O=c1cc(-c2ccccc2)oc2cccc(O)c12 [5-Hydroxyflavone] |  | 
4 |  | -44.1 kJ/mol | 0.019 µM | 5.1 µM | O=c1cc(-c2ccc(O)c(O)c2)oc2cc(O)cc(O)c12 [5,7,3′4′-Tetrahydroxyflavone (Luteolin), 5,7,3′4′-Tetrahydroxyflavone] | significantly induced luciferase activity | 
5 | potent inhibition | -39.4 kJ/mol | 0.15 µM | 13 µM | O=c1cc(-c2ccc(O)cc2)oc2ccccc12 [4′-Hydroxyflavone] | significantly induced luciferase activity | 
6 |  | -38.7 kJ/mol | 0.17 µM | 21.4 µM | O=c1cc(-c2cccc(O)c2)oc2cc(O)ccc12 [7,3′-Dihydroxyflavone] |  | 
7 | decreased transactivation | -35.7 kJ/mol | 0.57 µM | 1.77 µM | O=c1cc(-c2ccc(O)cc2)oc2cc(O)cc(O)c12 [5,7,4′-Trihydroxyflavone (Apigenin), 5,7,4′-Trihydroxyflavone] |  | Kd [4, 8]: 0.08 µM
8 |  | -40.7 kJ/mol | 0.075 µM | 3.4 µM | O=c1cc(-c2ccccc2)oc2ccccc12 [Flavone] |  | 

More lines, now with the values behind:

Row | SMILES | effect on NR4A1-dependent transactivation (GAL4-NR4A1 [1]) | ITC assay ΔG ([2]; 25 °C) | Kd ([2]; 25 °C, read-out: ITC assay Kd1) | Kd [4, 7] | effect on luciferase activity (GAL4-NR4A1 [3]) | also measured
9 | O=c1c(O)c(-c2ccc(O)cc2)oc2cc(O)cc(O)c12 [3,5,7,4′-Tetrahydroxyflavone] | decreased transactivation | -22.9 kJ/mol | 97.1 µM | 3.1 µM |  | tumor growth (rhabdomyosarcoma tumor): inhibited tumor growth; effect on luciferase activity / NR4A1-dependent transactivation (previous studies) (GAL4-NR4A1 [5]; listed as kaempferol): decreased luciferase activity; also recorded: decreased NR4A1-dependent transactivation
10 | Clc1cc(Cl)cc(C(c2c[nH]c3ccccc23)c2c[nH]c3ccccc23)c1 [DIM-3,5-CI2, 1,1-bis(3′-indolyl)-1-(3,5-dichlorophenyl)methane, reference compound] | decreased transactivation |  |  |  |  | 
11 | O=c1cc(-c2ccc(O)c(O)c2)oc2ccccc12 [3′,4′-Dihydroxyflavone] |  | -28.7 kJ/mol | 9.5 µM | 0.96 µM |  | induction of luciferase activity (GAL4-NR4A1 [1]): < 2.4 fold; induction of luciferase activity (GAL4-NR4A1 [3]): < 2.4 fold
12 | O=c1cc(-c2ccccc2)oc2cc(O)c(O)c(O)c12 [5,6,7 -Trihydroxyflavone (Baicalein), 5,6,7-Trihydroxyflavone] |  | -39.4 kJ/mol | 0.13 µM | 1.85 µM | significantly induced luciferase activity | 
13 | O=c1cc(-c2ccccc2)oc2c(O)c(O)ccc12 [7,8-Dihydroxyflavone] |  | -42.1 kJ/mol | 0.042 µM | 17.6 µM |  | 
14 | O=c1cc(-c2ccccc2)oc2cc(O)ccc12 [7-Hydroxyflavone] |  | -42.1 kJ/mol |  | 7.4 µM | significantly induced luciferase activity | induction of luciferase activity (GAL4-NR4A1 [1]): < 2.4 fold; Kd [2]: 0.042 µM; induction of luciferase activity (GAL4-NR4A1 [3]): < 2.4 fold
15 | O=c1c(O)c(-c2ccccc2)oc2ccccc12 [3-Hydroxyflavone] |  | -43.6 kJ/mol | 0.0225 µM |  |  | solubility [6]: insoluble; solubility ([6]; listed as 3-hydroxyflavone): aqueous insolubility
16 | O=c1c(O)c(-c2ccccc2)oc2ccc(O)cc12 [3,6-Dihydroxyflavone] | potent inhibition | -19.1 kJ/mol | 444 µM | 0.66 µM |  | 
17 | O=c1c(O)c(-c2ccc(O)c(O)c2)oc2cc(O)cc(O)c12 | decreased transactivation | -36.8 kJ/mol | 0.35 µM | 0.81 µM | significantly induced luciferase activity | tumor growth (rhabdomyosarcoma tumor): inhibited tumor growth; effect on luciferase activity / NR4A1-dependent transactivation (previous studies) (GAL4-NR4A1 [5]; listed as quercetin): decreased luciferase activity; also recorded: decreased NR4A1-dependent transactivation; ER binding (ERα): did not bind ERα
18 | O=c1c(O)c(-c2ccc(O)c(O)c2)oc2cccc(O)c12 [3,5,3′,4-tetrahydroxyflavone] | potent inhibition |  |  |  |  | 
19 | O=c1cc(-c2ccc(O)cc2)oc2cc(O)ccc12 [7,4’-Dihydroxyflavone] |  | -36.1 kJ/mol | 0.49 µM | 9.1 µM |  | 
20 | O=c1c(O)c(-c2ccccc2)oc2cc(O)ccc12 [3,7-Dihydroxyflavone] | potent inhibition | -38.5 kJ/mol | 0.18 µM | 2.8 µM |  | 
21 | O=c1c(O)c(-c2ccccc2)oc2cc(O)cc(O)c12 [3,5,7 -Trihydroxyflavone (Galangin), 3,5,7-Trihydroxyflavone] | potent inhibition | -51.2 kJ/mol | 0.001 µM | 0.36 µM | decreased luciferase activity | 
22 | O=c1cc(-c2cccc(O)c2)oc2ccccc12 [3′-Hydroxyflavone] |  | -37 kJ/mol | 0.33 µM | 45.8 µM |  | Kd [4, 8]: 45.8 µM
